Key:
[1] = test system: harmful plants such as Stellaria media, Lolium multiforum, Amaranthus retroflexus, Sinapis alba, Avena sativa and Setaria viridis; test: Pre-emergence effect on weeds (greenhouse pot test); type: in vivo; settings: application rate of 1 kg or less of active ingredient per hectare; scored after 3 to 4 weeks by comparison with untreated controls
Procedure, shortened: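 Seeds or rhizome pieces sown in sandy loam; test compounds (wettable powder or emulsion concentrate) applied pre-emergence to soil surface as aqueous suspension/emulsion at various dosages, 600 to 800 l water/ha. Greenhouse; plant/emergence damage scored visually after 3 to 4 weeks versus untreated controls.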

[2] = test system: harmful plants such as Sinapis alba, Echinochloa crus-galli, Lolium multiflorum, Stellaria media, Cyperus iria, Amaranthus retroflexus, Setaria viridis, Avena …; test: Post-emergence effect on weeds (greenhouse pot test); type: in vivo; settings: application rate of 2 kg or less of active ingredient per hectare; treated in the three-leaf stage; scored after approx. 3 to 4 weeks by comparison with untreated controls

SMILES | pre-emergence control of harmful plants (plant or emergence damage scored visually) [1] | herbicidal post-emergence activity against harmful plants (scored visually) [2]
CCc1nc(N)nc(N[C@@H]2CCc3ccc(OC)cc32)n1 [Compound 8.244] | very good pre-emergence control | very good herbicidal post-emergence activity
CCCCc1nc(N)nc(N[C@@H]2CCCc3ccc(CC)cc32)n1 [Compound 8.257] | very good pre-emergence control | very good herbicidal post-emergence activity
CCC(F)c1nc(N)nc(N[C@H]2c3cc(C)ccc3C[C@@H]2C)n1 (some centres unmarked) [Compound 9.37] | very good pre-emergence control | very good herbicidal post-emergence activity
CC1(c2nc(N)nc(N[C@@H]3CCCc4ccccc43)n2)CC1 [Compound 8.152] | very good pre-emergence control | very good herbicidal post-emergence activity
CC(C)c1nc(N)nc(N[C@@H]2CCc3ccc(F)cc32)n1 [Compound 8.68] | very good pre-emergence control | very good herbicidal post-emergence activity
CC(C)c1nc(N)nc(N[C@H]2c3ccccc3C[C@@H]2C)n1 [Compound 7.24] | very good pre-emergence control | very good herbicidal post-emergence activity
CCC(F)c1nc(N)nc(N[C@@H]2CCCc3ccc(C)cc32)n1 (some centres unmarked) [Compound 10.47] | very good pre-emergence control | very good herbicidal post-emergence activity
Cc1nc(N)nc(N[C@@H]2CCCc3ccccc32)n1 [Compound 8.11] | very good pre-emergence control | very good herbicidal post-emergence activity
CCCc1nc(N)nc(N[C@@H]2CCc3ccc(F)cc32)n1 [Compound 8.49] | very good pre-emergence control | very good herbicidal post-emergence activity
CC(C)(F)c1nc(N)nc(N[C@@H]2CCc3ccccc32)n1 [Compound 8.195] | very good pre-emergence control | very good herbicidal post-emergence activity
Cc1ccc2c(c1)[C@H](Nc1nc(N)nc([C@@H](C)F)n1)CCO2 [Compound 1.21] | very good pre-emergence control | very good herbicidal post-emergence activity
Cc1ccc2c(c1)[C@H](Nc1nc(C)nc(N)n1)CC2 [Compound 8.2] | very good pre-emergence control | very good herbicidal post-emergence activity
Cc1cc2c(cc1C)[C@H](Nc1nc(N)nc([C@@H](C)F)n1)CC2 [Compound 1.7] | very good pre-emergence control | very good herbicidal post-emergence activity
Cc1ccc2c(c1)[C@H](Nc1nc(N)nc(CCSC(F)(F)F)n1)[C@@H](C)C2 [Compound 7.238] | very good pre-emergence control | very good herbicidal post-emergence activity
COCc1nc(N)nc(N[C@H]2c3cc(C)ccc3C[C@@H]2C)n1 [Compound 7.72] | very good pre-emergence control | very good herbicidal post-emergence activity
Cc1ccc2c(c1)[C@H](Nc1nc(N)nc([C@@H](C)F)n1)CCC2 [Compound 1.12] | very good pre-emergence control | very good herbicidal post-emergence activity
CCCc1nc(N)nc(N[C@@H]2CCCc3ccc(C)cc32)n1 [Compound 8.58] | very good pre-emergence control | very good herbicidal post-emergence activity
CCc1nc(N)nc(N[C@@H]2CCOc3ccc(C)cc32)n1 [Compound 8.44] | very good pre-emergence control | very good herbicidal post-emergence activity
CCc1nc(N)nc(N[C@H]2c3cc(C)ccc3C[C@@H]2C)n1 [Compound 7.75] | very good pre-emergence control | very good herbicidal post-emergence activity

SMILES | pre-emergence control of harmful plants (plant or emergence damage scored visually) [1] | herbicidal post-emergence activity against harmful plants (scored visually) [2]
Cc1cc(C)c2c(c1)[C@H](Nc1nc(N)nc(C(C)C)n1)CCC2 [Compound 8.252] | very good pre-emergence control | very good herbicidal post-emergence activity
Cc1ccc2c(c1)[C@H](Nc1nc(N)nc(C(C)(C)F)n1)CC2 [Compound 8.196] | very good pre-emergence control | very good herbicidal post-emergence activity
CCCc1nc(N)nc(N[C@@H]2CCc3ccc(CC)cc32)n1 [Compound 8.249] | very good pre-emergence control | very good herbicidal post-emergence activity
Cc1ccc2c(c1C)OCC[C@H]2Nc1nc(N)nc([C@@H](C)F)n1 [Compound 1.66] | very good pre-emergence control | very good herbicidal post-emergence activity
Cc1cc(C)c2c(c1)[C@H](Nc1nc(N)nc(C(C)(C)F)n1)CCC2 [Compound 8.209] | very good pre-emergence control | very good herbicidal post-emergence activity
C[C@@H](F)c1nc(N)nc(N[C@@H]2CCOc3c(F)cccc32)n1 [Compound 1.67] | very good pre-emergence control | very good herbicidal post-emergence activity
COCc1nc(N)nc(N[C@H]2c3ccccc3C[C@@H]2C)n1 [Compound 7.70] | very good pre-emergence control | very good herbicidal post-emergence activity
C[C@H]1CCc2ccccc2[C@@H]1Nc1nc(N)nc(C(C)(C)F)n1 [Compound 7.203] | very good pre-emergence control | very good herbicidal post-emergence activity
Nc1nc(N[C@@H]2CCCc3ccccc32)nc(C2(Cl)CC2)n1 [Compound 8.187] | very good pre-emergence control | very good herbicidal post-emergence activity
CCC(F)c1nc(N)nc(NC2c3ccccc3CC2C)n1 (mixture of isomers) [Compound 9.36] | very good pre-emergence control | very good herbicidal post-emergence activity
COc1ccc2c(c1)[C@H](Nc1nc(N)nc([C@@H](C)F)n1)CC2 [Compound 1.69] | very good pre-emergence control | very good herbicidal post-emergence activity
Cc1ccc2c(c1)[C@H](Nc1nc(N)nc(C(C)(C)F)n1)[C@@H](C)C2 [Compound 7.229] | very good pre-emergence control | very good herbicidal post-emergence activity
CCc1nc(N)nc(N[C@H]2c3ccccc3C[C@@H]2C)n1 [Compound 7.74] | very good pre-emergence control | very good herbicidal post-emergence activity
CCCc1nc(N)nc(N[C@@H]2CCc3ccc(C)cc32)n1 [Compound 8.48] | very good pre-emergence control | very good herbicidal post-emergence activity
CCCC(F)c1nc(N)nc(NC2CCOc3c(C)cc(C)cc32)n1 (mixture of isomers) [Compound 10.67] | very good pre-emergence control | very good herbicidal post-emergence activity
Cc1ccc2c(c1)[C@H](Nc1nc(N)nc([C@H](C)F)n1)CC2 [Compound 3.2] | very good pre-emergence control | very good herbicidal post-emergence activity
C[C@H]1Cc2ccccc2[C@@H]1Nc1nc(N)nc(C(C)(C)F)n1 [Compound 7.228] | very good pre-emergence control | very good herbicidal post-emergence activity
Cc1ccc2c(c1)[C@H](Nc1nc(N)nc([C@@H](C)F)n1)CC2 [Compound 1.2] | very good pre-emergence control | very good herbicidal post-emergence activity
